Test results from publication PMC10485820 (European Journal of Pharmaceutical Sciences, 2023).

How the values were obtained:
[1] = Blood-to-plasma partition ratio and fraction unbound in plasma; type: in vitro ADME; settings: Measured (in vivo)
Source text: (§1) The development of the DLM was complex.

[2] = Dissolution profile of HSK7653 tablets at pH 4.5 acetum; type: physicochemical
Source text: as §1

[3] = HSK7653 PBPK model development and fitting (SimCYP); design: species or system human; settings: Fitted (based on in vivo data)
Source text: as §1
In this manuscript, we constructed the ADAM absorption model using the dissolution profile method and DLM method, respectively. The same disposition model was severally coupled with these two different absorption models to capture the absorption and disposition characteristics of HSK7653 in vivo. Here, we collected the CLint_hep and CLR from in vitro experimental results and in vivo clinical trial data without further optimization. […] Therefore, the disposition model of HSK7653 could accurately capture the elimination characteristics of HSK7653 in vivo. […] Furthermore, the models were also validated with PK data from a multiple dose clinical study (CTR20191549). […] Accordingly, the mechanism driven HSK7653 PBPK model can be used to simulate untested scenarios in specific populations.

[4] = Bioavailability in rats (unpublished); settings: rat, in vivo, oral
[5] = target: T1, OCT3 (Homo sapiens, UniProt O75751); test: Preclinical transporter substrate assessment (unpublished); type: in vitro ADME
T1 sequence (O75751 1-556): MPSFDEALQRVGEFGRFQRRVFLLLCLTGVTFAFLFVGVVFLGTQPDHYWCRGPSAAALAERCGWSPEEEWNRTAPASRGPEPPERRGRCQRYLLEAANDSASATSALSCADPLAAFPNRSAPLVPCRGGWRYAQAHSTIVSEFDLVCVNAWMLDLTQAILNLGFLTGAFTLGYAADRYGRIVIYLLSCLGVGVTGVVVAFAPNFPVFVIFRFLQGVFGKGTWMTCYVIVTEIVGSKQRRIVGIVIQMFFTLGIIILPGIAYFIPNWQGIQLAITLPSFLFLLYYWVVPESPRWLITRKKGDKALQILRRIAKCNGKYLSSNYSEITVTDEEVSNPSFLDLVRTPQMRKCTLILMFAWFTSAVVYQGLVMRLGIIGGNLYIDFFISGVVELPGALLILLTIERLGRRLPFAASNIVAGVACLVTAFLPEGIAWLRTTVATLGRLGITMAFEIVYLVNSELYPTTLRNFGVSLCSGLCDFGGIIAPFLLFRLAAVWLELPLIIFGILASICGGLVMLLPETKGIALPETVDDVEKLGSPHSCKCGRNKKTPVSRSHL

[6] = target: T2, breast cancer resistance protein (Homo sapiens, UniProt Q9UNQ0); test: as above; type: in vitro ADME
T2 sequence (Q9UNQ0 1-655): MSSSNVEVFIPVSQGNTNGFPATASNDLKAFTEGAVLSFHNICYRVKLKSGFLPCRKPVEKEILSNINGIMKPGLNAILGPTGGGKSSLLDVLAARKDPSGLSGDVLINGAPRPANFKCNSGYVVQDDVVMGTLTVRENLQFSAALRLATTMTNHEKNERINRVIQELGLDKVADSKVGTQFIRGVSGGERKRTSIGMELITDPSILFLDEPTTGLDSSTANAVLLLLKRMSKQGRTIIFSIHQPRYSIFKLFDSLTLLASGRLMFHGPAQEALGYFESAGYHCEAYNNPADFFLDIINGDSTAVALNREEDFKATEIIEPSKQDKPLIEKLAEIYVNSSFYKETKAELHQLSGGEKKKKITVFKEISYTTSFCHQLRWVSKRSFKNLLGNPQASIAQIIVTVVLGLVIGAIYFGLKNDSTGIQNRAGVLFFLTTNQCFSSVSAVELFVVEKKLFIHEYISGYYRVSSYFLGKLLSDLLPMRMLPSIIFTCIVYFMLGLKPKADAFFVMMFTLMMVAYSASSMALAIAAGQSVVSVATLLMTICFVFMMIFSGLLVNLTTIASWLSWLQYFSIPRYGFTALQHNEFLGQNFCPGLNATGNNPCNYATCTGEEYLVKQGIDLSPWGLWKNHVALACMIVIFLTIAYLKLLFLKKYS

[7] = target: T3, MATE1 (Homo sapiens, UniProt Q96FL8); test: as above; type: in vitro ADME
T3 sequence (Q96FL8 1-570): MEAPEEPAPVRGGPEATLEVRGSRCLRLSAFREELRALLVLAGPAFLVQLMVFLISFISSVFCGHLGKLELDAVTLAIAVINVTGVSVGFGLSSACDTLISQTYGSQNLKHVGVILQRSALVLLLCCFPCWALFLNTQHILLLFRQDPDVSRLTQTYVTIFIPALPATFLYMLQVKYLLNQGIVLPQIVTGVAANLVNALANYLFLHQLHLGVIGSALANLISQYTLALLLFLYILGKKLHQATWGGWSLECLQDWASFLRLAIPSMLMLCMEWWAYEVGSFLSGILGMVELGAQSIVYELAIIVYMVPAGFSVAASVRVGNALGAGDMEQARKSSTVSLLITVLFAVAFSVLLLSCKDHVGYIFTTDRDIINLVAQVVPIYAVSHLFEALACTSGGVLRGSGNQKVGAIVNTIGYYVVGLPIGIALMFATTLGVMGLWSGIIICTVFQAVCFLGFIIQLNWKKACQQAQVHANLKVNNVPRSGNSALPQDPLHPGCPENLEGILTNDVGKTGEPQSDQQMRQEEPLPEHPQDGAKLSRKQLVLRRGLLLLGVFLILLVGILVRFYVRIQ

[8] = target: P-glycoprotein (P-gp) (Homo sapiens, UniProt P08183); test: as above; type: in vitro ADME
Chain of P-glycoprotein (P-gp) (P08183 whole entry): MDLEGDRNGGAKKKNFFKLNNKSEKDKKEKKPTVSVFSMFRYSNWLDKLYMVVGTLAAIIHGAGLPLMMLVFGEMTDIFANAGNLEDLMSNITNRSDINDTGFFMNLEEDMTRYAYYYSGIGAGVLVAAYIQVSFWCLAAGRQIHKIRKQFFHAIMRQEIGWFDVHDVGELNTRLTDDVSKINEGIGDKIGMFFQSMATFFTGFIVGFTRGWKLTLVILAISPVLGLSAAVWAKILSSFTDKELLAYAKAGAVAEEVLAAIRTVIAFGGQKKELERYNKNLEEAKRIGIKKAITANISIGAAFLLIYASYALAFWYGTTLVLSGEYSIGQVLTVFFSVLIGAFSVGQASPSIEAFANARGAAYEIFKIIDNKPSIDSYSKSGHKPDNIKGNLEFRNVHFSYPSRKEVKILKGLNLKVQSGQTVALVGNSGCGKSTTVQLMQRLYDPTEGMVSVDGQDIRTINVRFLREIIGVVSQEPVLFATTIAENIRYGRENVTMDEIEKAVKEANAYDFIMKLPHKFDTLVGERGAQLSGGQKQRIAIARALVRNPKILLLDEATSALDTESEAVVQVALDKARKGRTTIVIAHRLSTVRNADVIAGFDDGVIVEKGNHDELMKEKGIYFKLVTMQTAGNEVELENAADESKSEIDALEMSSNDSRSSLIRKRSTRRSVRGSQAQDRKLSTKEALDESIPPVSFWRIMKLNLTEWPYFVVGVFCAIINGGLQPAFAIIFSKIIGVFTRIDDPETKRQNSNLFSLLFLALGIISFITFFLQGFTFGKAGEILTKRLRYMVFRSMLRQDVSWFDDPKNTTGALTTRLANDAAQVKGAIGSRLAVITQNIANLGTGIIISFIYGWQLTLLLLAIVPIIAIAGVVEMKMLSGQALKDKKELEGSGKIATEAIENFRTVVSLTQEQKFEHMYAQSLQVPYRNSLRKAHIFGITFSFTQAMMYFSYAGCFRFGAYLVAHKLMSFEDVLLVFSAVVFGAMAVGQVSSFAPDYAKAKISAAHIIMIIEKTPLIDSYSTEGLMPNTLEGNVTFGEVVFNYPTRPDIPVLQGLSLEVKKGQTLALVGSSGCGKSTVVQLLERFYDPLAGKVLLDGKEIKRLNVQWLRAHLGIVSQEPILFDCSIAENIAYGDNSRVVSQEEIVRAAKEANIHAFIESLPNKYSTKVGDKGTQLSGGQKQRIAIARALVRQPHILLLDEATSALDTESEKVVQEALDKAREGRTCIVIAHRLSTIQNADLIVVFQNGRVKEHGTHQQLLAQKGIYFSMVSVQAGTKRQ

In the case of `CS(=O)(=O)n1cc2c(n1)CN([C@@H]1C[C@H](N)[C@@H](c3cc(F)ccc3F)O[C@@H]1C(F)(F)F)C2` [HSK7653], the fraction unbound [1] was 0.143, the “Fasted Dissolution (%)” value ([2]; time 0.167 h) was 70.52% and the “Fasted Dissolution (%)” value ([2]; time 0.333 h) was 95.97%. For the same compound, the “Fasted Dissolution (%)” value ([2]; time 0.50 h) was 100.0%, the “Biliary CLint (CLint_bile)” value [3] was 0.025 μL/min/10^6 and the bioavailability [4] was 94.5%. The Transporter substrate assessment [5] was “not a common transport substrate”, the Transporter substrate assessment [6] was “not a common transport substrate” and the Transporter substrate assessment [7] was “not a common transport substrate”. The Transporter substrate assessment [8] was “not a common transport substrate”.
